In publication PMC5218480 (PLoS ONE, 2017):

Tested on: MV-4-11 cells
Experiment: Gene expression microarray analysis (Affymetrix PrimeView) and GSEA
Type: cell-based, human
Parameters: RFU PODN (11730768_x_at) / Fold change /veh PODN (11730768_x_at) / RFU LINC00158 (11744669_a_at) / Fold change /veh LINC00158 (11744669_a_at) / RFU DUSP10 (11751237_a_at) / Fold change /veh DUSP10 (11751237_a_at) / RFU ID3 (11757404_x_at) / Fold change /veh ID3 (11757404_x_at) / RFU PLEKHG5 (11737974_s_at) / Fold change /veh PLEKHG5 (11737974_s_at) / RFU LRRC4B (11730491_at) / Fold change /veh LRRC4B (11730491_at) / RFU GIMAP4 (11747438_a_at) / Fold change /veh GIMAP4 (11747438_a_at) / RFU KRT8 (11758183_x_at) / Fold change /veh KRT8 (11758183_x_at) / RFU CNN1 (11734310_a_at) / Fold change /veh CNN1 (11734310_a_at) / RFU VPS37D (11726825_at) / Fold change /veh VPS37D (11726825_at) / RFU C10orf10 (11716522_x_at) / Fold change /veh C10orf10 (11716522_x_at) / RFU KIR2DL2 /// KIR2DL4 /// KIR2DL5A /// KIR2DL5B /// KIR2DS1 /// KIR2DS2 /// KIR2DS3 /// KIR2DS4 /// KIR3DL3 /// KIR3DL3 /// KIR3DS1 (11738374_at) / Fold change /veh KIR2DL2 /// KIR2DL4 /// KIR2DL5A /// KIR2DL5B /// KIR2DS1 /// KIR2DS2 /// KIR2DS3 /// KIR2DS4 /// KIR3DL3 /// KIR3DL3 /// KIR3DS1 (11738374_at) / RFU C1QL1 (11718748_at) / Fold change /veh C1QL1 (11718748_at) / RFU TMPRSS4 (11747572_a_at) / Fold change /veh TMPRSS4 (11747572_a_at) / RFU HAMP (11756126_x_at) / Fold change /veh HAMP (11756126_x_at) / RFU RNFT2 (11725882_a_at) / Fold change /veh RNFT2 (11725882_a_at) / RFU NR4A2 (11747474_a_at) / Fold change /veh NR4A2 (11747474_a_at) / RFU ABCC12 (11746883_a_at) / Fold change /veh ABCC12 (11746883_a_at) / RFU TMEM136 (11760407_x_at) / Fold change /veh TMEM136 (11760407_x_at) / RFU CLDN22 /// WWC2 (11732394_at) / Fold change /veh CLDN22 /// WWC2 (11732394_at) / RFU HLA-DPB1 (11760878_x_at) / Fold change /veh HLA-DPB1 (11760878_x_at) / RFU SPINT1 (11716480_a_at) / Fold change /veh SPINT1 (11716480_a_at) / RFU GAP43 (11754022_s_at) / Fold change /veh GAP43 (11754022_s_at) / RFU A4GNT (11735810_at) / Fold change /veh A4GNT (11735810_at) / RFU PRB3 (11715151_x_at) / Fold change /veh PRB3 (11715151_x_at) / RFU TUBB4B (11761932_at) / Fold change /veh TUBB4B (11761932_at) / RFU CAPN14 (11732068_a_at) / Fold change /veh CAPN14 (11732068_a_at) / RFU TMCC2 (11721928_a_at) / Fold change /veh TMCC2 (11721928_a_at) / RFU IRGQ (11745062_a_at) / Fold change /veh IRGQ (11745062_a_at) / RFU FAM174B (11720279_a_at) / Fold change /veh FAM174B (11720279_a_at) / RFU TMPRSS4 (11748680_a_at) / Fold change /veh TMPRSS4 (11748680_a_at) / RFU FAM212B (11763350_a_at) / Fold change /veh FAM212B (11763350_a_at) / RFU PLEKHG5 (11743358_a_at) / Fold change /veh PLEKHG5 (11743358_a_at) / RFU ZSCAN30 (11745921_a_at) / Fold change /veh ZSCAN30 (11745921_a_at) / RFU CMKLR1 (11741424_a_at) / Fold change /veh CMKLR1 (11741424_a_at) / RFU LOC101060620 /// MAPK8IP1 (11723275_at) / Fold change /veh LOC101060620 /// MAPK8IP1 (11723275_at) / RFU SPTSSB (11747773_x_at) / Fold change /veh SPTSSB (11747773_x_at) / RFU PRSS12 (11739890_at) / Fold change /veh PRSS12 (11739890_at) / RFU BIN1 (11741810_x_at) / Fold change /veh BIN1 (11741810_x_at) / RFU WNT11 (11732464_a_at) / Fold change /veh WNT11 (11732464_a_at) / RFU C10orf10 (11716521_a_at) / Fold change /veh C10orf10 (11716521_a_at) / RFU C5orf56 (11738089_at) / Fold change /veh C5orf56 (11738089_at) / RFU CYB561 (11721691_x_at) / Fold change /veh CYB561 (11721691_x_at) / RFU ANKRD19P (11752326_a_at) / Fold change /veh ANKRD19P (11752326_a_at) / RFU OR2T12 /// OR2T33 /// OR2T8 (11738714_s_at) / Fold change /veh OR2T12 /// OR2T33 /// OR2T8 (11738714_s_at) / RFU VCAN (11748164_a_at) / Fold change /veh VCAN (11748164_a_at) / RFU JSRP1 (11732532_at) / Fold change /veh JSRP1 (11732532_at) / RFU KRTAP10-11 (11738290_x_at) / Fold change /veh KRTAP10-11 (11738290_x_at) / RFU MYO3A (11730013_a_at) / Fold change /veh MYO3A (11730013_a_at) / RFU EBF3 (11725865_a_at) / Fold change /veh EBF3 (11725865_a_at) / RFU CAMK2N1 (11719241_x_at) / Fold change /veh CAMK2N1 (11719241_x_at) / RFU C5orf56 (11738088_a_at) / Fold change /veh C5orf56 (11738088_a_at) / RFU OLFML3 (11715873_a_at) / Fold change /veh OLFML3 (11715873_a_at) / RFU LOC100653217 /// NTM (11731650_a_at) / Fold change /veh LOC100653217 /// NTM (11731650_a_at) / RFU MAPK11 (11762145_a_at) / Fold change /veh MAPK11 (11762145_a_at) / RFU FIZ1 (11724087_x_at) / Fold change /veh FIZ1 (11724087_x_at) / RFU OASL (11726364_x_at) / Fold change /veh OASL (11726364_x_at) / RFU SOX15 (11748057_x_at) / Fold change /veh SOX15 (11748057_x_at) / RFU CD79A (11719716_a_at) / Fold change /veh CD79A (11719716_a_at) / RFU HIST1H1D (11736915_at) / Fold change /veh HIST1H1D (11736915_at) / RFU CASKIN2 (11723855_a_at) / Fold change /veh CASKIN2 (11723855_a_at) / RFU LOC730098 (11760151_x_at) / Fold change /veh LOC730098 (11760151_x_at) / RFU OR4N2 (11742367_at) / Fold change /veh OR4N2 (11742367_at) / RFU PRRT2 (11749266_a_at) / Fold change /veh PRRT2 (11749266_a_at) / RFU SNX32 (11753110_a_at) / Fold change /veh SNX32 (11753110_a_at) / RFU CDHR5 (11726645_a_at) / Fold change /veh CDHR5 (11726645_a_at) / RFU RCAN1 (11760418_a_at) / Fold change /veh RCAN1 (11760418_a_at) / RFU FAM167A (11723789_a_at) / Fold change /veh FAM167A (11723789_a_at) / RFU FAM26E (11764081_at) / Fold change /veh FAM26E (11764081_at) / RFU ISYNA1 (11749810_s_at) / Fold change /veh ISYNA1 (11749810_s_at) / RFU ACY1 (11761880_at) / Fold change /veh ACY1 (11761880_at) / RFU 11764098_at / Fold change /veh 11764098_at / RFU SAMD14 (11745864_x_at) / Fold change /veh SAMD14 (11745864_x_at) / RFU NPB (11741838_a_at) / Fold change /veh NPB (11741838_a_at) / RFU TMPRSS6 (11731388_a_at) / Fold change /veh TMPRSS6 (11731388_a_at) / RFU KRTAP10-2 (11738614_at) / Fold change /veh KRTAP10-2 (11738614_at) / RFU ARHGAP8 /// PRR5-ARHGAP8 (11727945_x_at) / Fold change /veh ARHGAP8 /// PRR5-ARHGAP8 (11727945_x_at) / RFU KRTAP5-7 /// NADSYN1 (11734609_at) / Fold change /veh KRTAP5-7 /// NADSYN1 (11734609_at) / RFU RASL12 (11751679_a_at) / Fold change /veh RASL12 (11751679_a_at) / RFU CDKN2B (11736163_a_at) / Fold change /veh CDKN2B (11736163_a_at) / RFU PRF1 (11729649_at) / Fold change /veh PRF1 (11729649_at) / RFU, ZNF638 /// ZNF638-IT1 / Fold change vs veh, ZNF638 /// ZNF638-IT1 / RFU, PANK3 / Fold change vs veh, PANK3 / RFU, SH3YL1 / Fold change vs veh, SH3YL1 / RFU, ZEB2 / Fold change vs veh, ZEB2 / RFU, NRIP1 / Fold change vs veh, NRIP1 / RFU, PTTG1IP / Fold change vs veh, PTTG1IP / RFU, CAPN2 / Fold change vs veh, CAPN2 / RFU, MED14 / Fold change vs veh, MED14 / RFU, SNORA58 / Fold change vs veh, SNORA58 / RFU, C1orf63 / Fold change vs veh, C1orf63 / RFU, LRRFIP1 / Fold change vs veh, LRRFIP1 / RFU, NDUFAF7 / Fold change vs veh, NDUFAF7 / RFU, SLC12A2 / Fold change vs veh, SLC12A2 / RFU, IBTK / Fold change vs veh, IBTK / RFU, ESF1 / Fold change vs veh, ESF1 / Fold change vs veh, TMEM50B / RFU, TAOK1 / Fold change vs veh, TAOK1 / RFU, ACBD3 / Fold change vs veh, ACBD3 / RFU, TMA16 / Fold change vs veh, TMA16 / RFU, RWDD3 / Fold change vs veh, RWDD3 / RFU, BCAT1 / Fold change vs veh, BCAT1 / RFU, EDEM3 / Fold change vs veh, EDEM3 / RFU, TMEM33 / Fold change vs veh, TMEM33 / RFU, WDR75 / Fold change vs veh, WDR75 / RFU, AHCTF1 / Fold change vs veh, AHCTF1 / RFU, TFRC / Fold change vs veh, TFRC / RFU, ZDHHC17 / Fold change vs veh, ZDHHC17 / RFU, NOM1 / Fold change vs veh, NOM1 / RFU, ARL8B / Fold change vs veh, ARL8B / RFU, ZBTB11 / Fold change vs veh, ZBTB11 / RFU, TAMM41 / Fold change vs veh, TAMM41 / RFU, KIAA1704 /// LOC100996395 / Fold change vs veh, KIAA1704 /// LOC100996395 / RFU, ING1 / Fold change vs veh, ING1 / RFU, TRMT61B / Fold change vs veh, TRMT61B / RFU, FUBP3 / Fold change vs veh, FUBP3 / RFU, TP53 / Fold change vs veh, TP53 / RFU, TNKS2 / Fold change vs veh, TNKS2 / RFU, ZFP14 / Fold change vs veh, ZFP14 / RFU, ACTR2 / Fold change vs veh, ACTR2 / RFU, PPP3R1 / Fold change vs veh, PPP3R1 / RFU, PIK3R1 / Fold change vs veh, PIK3R1 / RFU, HNRNPA1 / Fold change vs veh, HNRNPA1 / RFU, RNF170 / Fold change vs veh, RNF170 / RFU, ZNF28 / Fold change vs veh, ZNF28 / RFU, RNGTT / Fold change vs veh, RNGTT / RFU, OGT / Fold change vs veh, OGT / RFU, BRD1 / Fold change vs veh, BRD1 / RFU, MARS / Fold change vs veh, MARS / RFU, ZNF655 / Fold change vs veh, ZNF655 / RFU, FAHD1 / Fold change vs veh, FAHD1 / RFU, BDP1 / Fold change vs veh, BDP1 / RFU, LRRCC1 / Fold change vs veh, LRRCC1 / RFU, ARID1A / Fold change vs veh, ARID1A / RFU, ZNF146 / Fold change vs veh, ZNF146 / RFU, ZNF330 / Fold change vs veh, ZNF330 / RFU, GPN3 / Fold change vs veh, GPN3 / RFU, C9orf123 / Fold change vs veh, C9orf123 / RFU, N4BP2L2 / Fold change vs veh, N4BP2L2 / RFU, ARFIP1 / Fold change vs veh, ARFIP1 / RFU, FAM179B / Fold change vs veh, FAM179B / RFU, BCL10 / Fold change vs veh, BCL10 / RFU, UHRF1BP1L / Fold change vs veh, UHRF1BP1L / RFU, BET1 / Fold change vs veh, BET1 / RFU, CNOT2 / Fold change vs veh, CNOT2 / RFU, ZNF268 / Fold change vs veh, ZNF268 / Fold change vs veh, ZNF507 / RFU, DGCR2 / Fold change vs veh, DGCR2 / RFU, WDSUB1 / Fold change vs veh, WDSUB1 / Fold change vs veh, HSP90B1 /// MIR3652 / RFU, ADSS / Fold change vs veh, ADSS / RFU, GK / Fold change vs veh, GK / RFU, ZNF148 / Fold change vs veh, ZNF148 / RFU, TAF9 / Fold change vs veh, TAF9 / RFU, SLC1A5 / Fold change vs veh, SLC1A5 / RFU, SLMO2 / Fold change vs veh, SLMO2 / RFU, ABCC4 / Fold change vs veh, ABCC4 / RFU, LOC101060439 /// RAP1B / Fold change vs veh, LOC101060439 /// RAP1B / RFU, RFX7 / Fold change vs veh, RFX7 / RFU, GTPBP10 / Fold change vs veh, GTPBP10 / RFU, CNEP1R1 / Fold change vs veh, CNEP1R1 / RFU, BIVM-ERCC5 /// ERCC5 / Fold change vs veh, BIVM-ERCC5 /// ERCC5 / RFU, ILF3 / Fold change vs veh, ILF3 / RFU 11762660_at / Fold change /veh 11762660_at / RFU VCAN (11757783_s_at) / Fold change /veh VCAN (11757783_s_at) / RFU DDX43 (11728927_at) / Fold change /veh DDX43 (11728927_at) / RFU KRT8 (11758188_x_at) / Fold change /veh KRT8 (11758188_x_at) / RFU NKD1 (11759106_at) / Fold change /veh NKD1 (11759106_at) / RFU SRD5A1 (11742802_a_at) / Fold change /veh SRD5A1 (11742802_a_at) / RFU TPSAB1 /// TPSB2 (11721975_s_at) / Fold change /veh TPSAB1 /// TPSB2 (11721975_s_at) / RFU GSTM3 (11746129_a_at) / Fold change /veh GSTM3 (11746129_a_at) / RFU IL23R (11737362_x_at) / Fold change /veh IL23R (11737362_x_at) / RFU TMEM51 (11727254_a_at) / Fold change /veh TMEM51 (11727254_a_at) / RFU PIWIL2 (11732686_x_at) / Fold change /veh PIWIL2 (11732686_x_at) / RFU ORM1 (11744905_x_at) / Fold change /veh ORM1 (11744905_x_at) / RFU CCDC152 (11743942_at) / Fold change /veh CCDC152 (11743942_at) / RFU ECM1 (11717891_a_at) / Fold change /veh ECM1 (11717891_a_at) / RFU IL23R (11748794_a_at) / Fold change /veh IL23R (11748794_a_at) / RFU TNFAIP8L3 (11732012_x_at) / Fold change /veh TNFAIP8L3 (11732012_x_at) / RFU MBOAT4 (11741988_at) / Fold change /veh MBOAT4 (11741988_at) / RFU 11764193_at / Fold change /veh 11764193_at / RFU TMEM53 (11763286_at) / Fold change /veh TMEM53 (11763286_at) / RFU MAGEB2 (11727129_at) / Fold change /veh MAGEB2 (11727129_at) / RFU TMEM200A (11744735_a_at) / Fold change /veh TMEM200A (11744735_a_at) / RFU CCDC152 (11751479_a_at) / Fold change /veh CCDC152 (11751479_a_at) / RFU FAM211A (11726209_a_at) / Fold change /veh FAM211A (11726209_a_at) / RFU RGS16 (11746705_a_at) / Fold change /veh RGS16 (11746705_a_at) / RFU VCAN (11755009_s_at) / Fold change /veh VCAN (11755009_s_at) / RFU RHOB (11743442_s_at) / Fold change /veh RHOB (11743442_s_at) / RFU RGS16 (11720943_a_at) / Fold change /veh RGS16 (11720943_a_at) / RFU RGS16 (11720944_at) / Fold change /veh RGS16 (11720944_at) / RFU, VPS4B / Fold change vs veh, VPS4B / RFU, CREB1 / Fold change vs veh, CREB1 / RFU, DNAJC13 / Fold change vs veh, DNAJC13 / RFU, GNAQ / Fold change vs veh, GNAQ / RFU, CDK5R1 / Fold change vs veh, CDK5R1 / RFU, ZRANB3 / Fold change vs veh, ZRANB3 / RFU, CUL4A / Fold change vs veh, CUL4A / RFU, CCNY / Fold change vs veh, CCNY / RFU, UFL1 / Fold change vs veh, UFL1 / RFU, COG3 / Fold change vs veh, COG3 / RFU, DIAPH2 / Fold change vs veh, DIAPH2 / RFU, SKA2 / Fold change vs veh, SKA2 / RFU, AFF3 / Fold change vs veh, AFF3 / RFU, LMF1 / Fold change vs veh, LMF1 / RFU, IPO11 / Fold change vs veh, IPO11 / RFU, DFFB / Fold change vs veh, DFFB / RFU, FOXP1 / Fold change vs veh, FOXP1 / RFU, CARD8 / Fold change vs veh, CARD8 / RFU, STRN3 / Fold change vs veh, STRN3 / RFU, ADK / Fold change vs veh, ADK / RFU, RASSF2 / Fold change vs veh, RASSF2 / RFU, WIPF1 / Fold change vs veh, WIPF1 / RFU, LARP1B / Fold change vs veh, LARP1B / RFU, RASA1 / Fold change vs veh, RASA1 / RFU, RB1 / Fold change vs veh, RB1 / RFU, PPFIA1 / Fold change vs veh, PPFIA1 / RFU, MAT2A / Fold change vs veh, MAT2A / RFU, CCT5 / Fold change vs veh, CCT5 / RFU, WDR92 / Fold change vs veh, WDR92 / RFU, CUX1 / Fold change vs veh, CUX1 / RFU, TTC7A / Fold change vs veh, TTC7A / RFU, TMEM135 / Fold change vs veh, TMEM135 / RFU, DEPTOR / Fold change vs veh, DEPTOR / RFU, CPM / Fold change vs veh, CPM / RFU, DNAJB6 / Fold change vs veh, DNAJB6 / RFU, CACNA2D3 / Fold change vs veh, CACNA2D3 / RFU, DTX4 / Fold change vs veh, DTX4 / RFU, TFCP2 / Fold change vs veh, TFCP2 / RFU, GMCL1 /// GMCL1P1 / Fold change vs veh, GMCL1 /// GMCL1P1 / RFU, AEBP2 / Fold change vs veh, AEBP2 / RFU, SNHG1 /// SNORD22 /// SNORD25 /// SNORD26 /// SNORD27 /// SNORD28 /// SNORD29 /// SNORD31 / Fold change vs veh, SNHG1 /// SNORD22 /// SNORD25 /// SNORD26 /// SNORD27 /// SNORD28 /// SNORD29 /// SNORD31 / Fold change (Aza/veh), C12orf56 (ProbeSet 11735607_a_at) / Fold change (ACY-1035/veh), C12orf56 (ProbeSet 11735607_a_at) / Fold change (Aza/veh), FGFR1OP (ProbeSet 11751329_s_at) / Fold change (ACY-1035/veh), FGFR1OP (ProbeSet 11751329_s_at) / Fold change (Aza/veh), VPS36 (ProbeSet 11739960_a_at) / Fold change (ACY-1035/veh), VPS36 (ProbeSet 11739960_a_at) / RFU SYPL1 (11715823_x_at) / Fold change /veh SYPL1 (11715823_x_at) / RFU IGFBP7 (11715501_s_at) / Fold change /veh IGFBP7 (11715501_s_at) / RFU REEP3 (11722064_at) / Fold change /veh REEP3 (11722064_at) / RFU IGLL1 (11728026_x_at) / Fold change /veh IGLL1 (11728026_x_at): dose or concentration left out as unconfirmed
Conditions: MV-4-11 cells, 48 hours

Compound: Nc1ccc(-c2cccs2)cc1NC(=O)c1ccc2c(c1)cc(C1CC1)n2CCN1CCOCC1 [ACY-1035]
- Fold change /veh LOC730098 (11760151_x_at): 1.00
